Test [1] concerns the target T1, CD81-LEL (Homo sapiens, UniProt P60033).
T1 construct: A recombinant form of the CD81-LEL protein with a GST tag; gift of Dr. Shoshana Levy, Stanford University
T1 sequence (P60033 113-201 limits assumed): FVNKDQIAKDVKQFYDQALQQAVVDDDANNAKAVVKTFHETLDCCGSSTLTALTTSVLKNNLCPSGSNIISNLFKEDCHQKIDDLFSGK
Put plainly: Surface plasmon resonance binding of ligands to immobilized CD81-LEL. Conditions: for binding-dissociation behavior (in words) / Binding (change in response units) / Dissociation 1 (change in response units) / Dissociation 2 (change in response units): SPR; for Binding (change in response units): 3 min association; for Dissociation 1 (change in response units) / Dissociation 2 (change in response units): dissociation interval. The protocol:
SPR analysis was performed using a Biacore T200 workstation (GE Healthcare, NJ, USA). A recombinant form of the CD81-LEL protein with a GST tag (generously provided by Dr. Shoshana Levy, Stanford University) was used to confirm, using an established experimental technique, the binding of several ligands to the protein. Briefly, 10 μM CD81-LEL-GST diluted into 10 mM Na-Acetate buffer pH 4.5 was immobilized for 15 min at a flow speed of 5 μl/min onto a CM5 sensor chip using amine-coupling (EDC-NHS), Approximately 20,000 RU of protein were immobilized on the chip. The ligands were prepared as 600 μM solutions in PBS-0.05% Tween-80 (the running buffer) and they were introduced to the protein using a pre-programmed 3 minute association and 1 minute dissociation interval.
SPR analysis was performed using a Biacore T100 workstation (GE Healthcare, NJ, USA). […] Approximately 20,000 RU of protein were immobilized on the chip. The ligands were prepared as 200 uM solutions in PBS-1% DMSO (the running buffer) and they were introduced to the protein using a pre-programmed 3 min association and 1 min dissociation interval.
Background: SPR reads the build-up and loss of mass on a sensor chip optically.

Test [2] deals with T2, native CD81 on Raji cells (Homo sapiens, UniProt P60033).
T2 construct: endogenous in cells; host or cells: Raji cells (human B cell line)
T2 sequence (P60033 1-236): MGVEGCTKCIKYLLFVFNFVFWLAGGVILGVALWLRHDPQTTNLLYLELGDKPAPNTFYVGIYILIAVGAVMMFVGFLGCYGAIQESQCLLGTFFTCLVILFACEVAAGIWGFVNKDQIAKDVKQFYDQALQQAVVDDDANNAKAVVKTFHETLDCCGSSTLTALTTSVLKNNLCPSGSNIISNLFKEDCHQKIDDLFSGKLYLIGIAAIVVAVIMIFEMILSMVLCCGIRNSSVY
The experiment in a line: Antibody neutralizing assay: inhibition of JS-81 anti-CD81 antibody binding on Raji cells (FACS). Format: cell-based. Conditions: for inhibition at 50 µM / inhibition at 100 µM / inhibition at 400 µM: read-out: Inhibition of JS-81 Binding (%). The protocol:
For antibody neutralization assay Raji cells were used, a human B cell line that expressed high amounts of CD81 on the surface (data not shown), Cells were grown in RPMI medium (10% FCS, 1% penicillin/streptomycin, 1% L-glutamine, 1% non-essential amino acids, 1% sodium pyruvate, pH 7.4, at 37° C. with 5% CO2). 2×10^5 cells were incubated with or without different concentrations (50 μM, 100 μM, 400 μM and 1 mM) of indicated inhibitor for 20 min at room temperature, subsequently 1 ul (16 ng/μl) of FITC-labeled anti CD81 antibody (BD Pharmingen, 551108) was added to the cells and incubated for 20 min (antibody titration was performed to obtain a working dilution range, data not shown). Cells were washed and analyzed by FACS (BD FACSCalibur, software: Cell Quest Pro). Mean Fluorescence Intensity MFI was calculated using Flowjo software (TreesStar, www.flowjo.com).

For test [3], the system named is Plasmodium falciparum. The experiment in a line: Sporozoite invasion assay, P. falciparum in HepG2-CD81 cells. In kind it is cell-based. The following applies: for Percent Infection: HepG2-CD81, Plasmodium falciparum, 400 uM compound. The protocol: (§1) Anopheles stephensi mosquitoes were fed on mice infected with Plasmodium yoelii 17XNL parasites. On day 14 post bloodmeal, salivary glands were harvested, homogenized, sporozoite number was determined using a hemocytometer and the indicated number of sporozoites was added to cell monolayers, Plasmodium falciparum sporozoites were generated by membrane feeding An. stephensi mosquitoes using gametocyte cultures generated in vitro.
(§2) HepG2-CD81 (14) cells were maintained in DMEM supplemented with 10% fetal calf serum and 1 mM glutamine (DMEM/FCS), mAb 2E6 was used for development assays and is directed against Plasmodium Hsp 70 (15) and mAb 2A10 is directed against the repeat region of P. falciparum CSP and was used for invasion assays.
(§3) 5×10^5 HepG2-CD81 cells were plated on collagen coated Lab-Tek wells and allowed to adhere overnight. The following day, cells were preincubated with 400 uM of compound for 30 minutes at 37° C. Controls were pre-incubated with DMSO at the same concentration in which it was found in the compound solutions. 10^5 sporozoites were added to each well and in the case of P. falciparum, incubated for 1.5 hours and scored for invasion whereas in the case of P. yoelii, incubated for 44 hours and scored for exoerythrocytic stages.

The subject of test [4] is Plasmodium yoelii. Put plainly: Sporozoite development assay, P. yoelii in HepG2-CD81 cells. Format: cell-based. The following applies: for Percent Infection: HepG2-CD81, Plasmodium yoelii, 400 uM compound. The protocol: as §1, §2, §3
For test [5], the system named is Plasmodium yoelii. The experiment in a line: Sporozoite infection assay, P. yoelii in Hepa1-6 cells. Format: cell-based. The following applies: for Percent Infection: Hepa1-6 Cells, Plasmodium yoelii.
Test [6] concerns Plasmodium berghei. The experiment in a line: Sporozoite infection assay, P. berghei in Hepa1-6 cells. In kind it is cell-based. Conditions: for Percent Infection: Hepa1-6 Cells, Plasmodium berghei; for effect on infection (in words): Hepa1-6 cells.

SMILES strings stand for the structures. “Also recorded” adds a separate entry of the source. Like-named read-outs stand apart in the source and are kept apart here.

As to `c1cncc(C2CCCC[NH2+]2)c1` (stereo in doubt) [Ligand 87504, 3-[(2S)-piperidin-2-yl]pyridine], in test [1], the “binding-dissociation behavior (in words)” value is “best binding and dissociation; also recorded: most desirable binding-dissociation behavior; also recorded: best binding-dissociation behavior”; the “Binding (change in response units)” value worked out at 72 response units; the “Dissociation 1 (change in response units)” value was determined as 57.9 response units; the “Dissociation 2 (change in response units)” value amounted to 42.6 response units. In test [2] (Raji), the inhibition at 50 µM is 0%, the inhibition at 100 µM is 6% and the inhibition at 400 µM came out at 20%.
As for `CC(C)(C)c1ccc(NS(=O)(=O)c2ccc(N)cc2)cc1` [Ligand 7436], the “Inhibition of JS-81 Binding (%)” value in test [2] (50 μM ligand, Raji cells) came to 0%; in test [2] (100 μM ligand, Raji cells) it was 12%; in test [2] (400 μM ligand, Raji cells), 11%.
For `CCC(C)(C)c1ccc(Oc2cccc(C(=O)O)c2)cc1` [Ligand 7962], the “Binding (change in response units)” value in test [1] amounted to 43.6 response units. Also, the “Dissociation 1 (change in response units)” value in test [1] stood at 14.7 response units. Also, the “Dissociation 2 (change in response units)” value in test [1] is given as 10.1 response units. Also, the inhibition at 50 µM in test [2] (50 μM ligand, Raji cells) was 0%. In addition, the inhibition at 100 µM in test [2] (100 μM ligand, Raji cells) amounted to 0%. Also, the inhibition at 400 µM in test [2] (400 μM ligand, Raji cells) is 19%. The “Percent Infection” value in test [3], in test [4], in test [5] and in test [6] was 0% throughout. Besides, the “effect on infection (in words)” value in test [3] (P. falciparum) is given as “inhibit the infection”; in test [4] (P. yoelii, HepG2-CD81), “inhibit; also recorded: strongest inhibitory effect”; in test [6] (P. berghei) it was “Inhibition”. Besides, the “percentage of infection inhibition” value in test [3] (P. falciparum, HepG2-CD81) turned out to be 100%; in test [4] (P. yoelii, HepG2-CD81), 100%; in test [5] (P. yoelii, Hepa1-6), 100%; in test [6] (P. berghei, Hepa1-6) it was 100%.
Consider `O=C(O)c1ccc(N2CCCCC2)cc1O` [Ligand 23895], for which the “Inhibition of JS-81 Binding (%)” value in test [2] (50 μM ligand, Raji cells) was 0%; in test [2] (100 μM ligand, Raji cells) it was 0%; in test [2] (400 μM ligand, Raji cells), 17%.
On to `Cc1ccc(-c2cc(C(=O)O)c3ccccc3n2)c(C)c1` [Ligand 25678], for which the “Inhibition of JS-81 Binding (%)” value is on record as 0% in test [2] (50 μM ligand, Raji cells); 4% in test [2] (100 μM ligand, Raji cells); 19% in test [2] (400 μM ligand, Raji cells).
For `O=C(O)c1cc2cc(OCc3ccccc3)ccc2[nH]1` [Ligand 30930, 5-phenylmethoxy-1H-indole-2-carboxylic acid], in test [1], the “Binding (change in response units)” value was found to be 38.6 response units, the “Dissociation 1 (change in response units)” value stood at 26.8 response units and the “Dissociation 2 (change in response units)” value is 21.8 response units. Further, the inhibition at 50 µM in test [2] (50 μM ligand, Raji cells) was determined as 0%. Besides, the inhibition at 100 µM in test [2] (100 μM ligand, Raji cells) was found to be 0%. The inhibition at 400 µM in test [2] (400 μM ligand, Raji cells) is 14%.
With `NC(N)=N/N=C\c1c(Cl)cccc1Cl` [Ligand 68982], the “Inhibition of JS-81 Binding (%)” value in test [2] (50 μM ligand, Raji cells) stood at 0%; in test [2] (100 μM ligand, Raji cells), 13%; in test [2] (400 μM ligand, Raji cells), 15%.
Taken in the same sequence, the figures for `CNC1(C(N)=O)CCNCC1` [Ligand 75846] were 0%, 0% and 52%.
For `O=C(O)Cn1ccc2ccccc21` [Ligand 75866, 2-indol-1-ylacetate], in test [1], the “Binding (change in response units)” value was determined as 14.3 response units. In addition, in test [1], the “Dissociation 1 (change in response units)” value turned out to be 18.9 response units. In addition, the “Dissociation 2 (change in response units)” value in test [1] came out at 11.3 response units. In addition, the “Percent Infection” value in test [3] came out at 84.2%; in test [4] it was 42.6%; in test [5], 122%; in test [6] it was 135%. Also, the “effect on infection (in words)” value in test [4] (P. yoelii, HepG2-CD81) is listed as “inhibit; also recorded: inhibitory effect”; in test [5] (P. yoelii, Hepa1-6 cells), “didn't inhibit”; in test [6] (P. berghei), “didn't inhibit”.
For the compound `O=C(Cn1ccc(=O)[nH]c1=O)Nc1ccc(C(=O)O)c(O)c1` [Ligand 93033, 4-[[2-(2,4-dioxopyrimidin-1-yl)acetyl]amino]-2-hydroxybenzoate], in test [1], the “binding-dissociation behavior (in words)” value is “comparable binding and dissociation”; the “Binding (change in response units)” value amounted to 6.7 response units; the “Dissociation 1 (change in response units)” value was found to be 16.8 response units; the “Dissociation 2 (change in response units)” value was 7.9 response units. For the same compound, in test [2] (50 μM ligand, Raji cells), the inhibition at 50 µM was found to be 0%. The inhibition at 100 µM in test [2] (100 μM ligand, Raji cells) worked out at 0%. In addition, the inhibition at 400 µM in test [2] (400 μM ligand, Raji cells) worked out at 16%.
For `CC(C)=CCC1=C(OCC(=O)O)C(=O)c2ccccc2C1=O` [Ligand 98026, 2-[3-(3-methylbut-2-enyl)-1,4-dioxonaphthalen-2-yl]oxyacetate], in test [1], the “Binding (change in response units)” value amounted to 36.6 response units, the “Dissociation 1 (change in response units)” value stood at 35.9 response units and the “Dissociation 2 (change in response units)” value is 28.1 response units. Moreover, the inhibition at 50 µM in test [2] (50 μM ligand, Raji cells) was 0%. Moreover, in test [2] (100 μM ligand, Raji cells), the inhibition at 100 µM is 0%. Further, the inhibition at 400 µM in test [2] (400 μM ligand, Raji cells) turned out to be 21%.
With `O=C(O)c1cc(O)ccc1N=Nc1ccccc1` [Ligand 106863], the “Inhibition of JS-81 Binding (%)” value in test [2] (50 μM ligand, Raji cells) is 0%; in test [2] (100 μM ligand, Raji cells), 0%; in test [2] (400 μM ligand, Raji cells) it was 19%.
Turning to `NC(=O)NC(=O)c1nccnc1C(=O)O` [Ligand 117922], the “Inhibition of JS-81 Binding (%)” value came out at 0% in test [2] (50 μM ligand, Raji cells); 12% in test [2] (100 μM ligand, Raji cells); 26% in test [2] (400 μM ligand, Raji cells).
In the case of `CC(=NO)C1CC(CC(=O)O)C1(C)C` (stereo not shown) [Ligand 127947], the “Inhibition of JS-81 Binding (%)” value is on record as 0% in test [2] (50 μM ligand, Raji cells); 0% in test [2] (100 μM ligand, Raji cells); 24% in test [2] (400 μM ligand, Raji cells).
Turning to `NS(=O)(=O)c1ccc(N=Nc2c(O)c(C(=O)O)cc3ccccc23)cc1` [Ligand 134137], the “Inhibition of JS-81 Binding (%)” value turned out to be 0% in test [2] (50 μM ligand, Raji cells); 6% in test [2] (100 μM ligand, Raji cells); 26% in test [2] (400 μM ligand, Raji cells).
The matching figures for `O=C(O)/C=C/C(=O)Nc1cccc2cccnc12` [Ligand 144958]: 0%, 54% and 12%.
As to `CSc1ccc2c(c1)C(N1CCN(C)CC1)Cc1ccccc1S2` (stereo not shown) [Ligand 281816], in test [1], the “binding to CD81 by SPR (in words)” value is “bind to CD81-LEL”. For the same compound, in test [2] (100 uM and 400 uM), the “inhibition of anti-CD81 binding (in words)” value is given as “inhibit anti-CD81 binding to CD81-LEL in a dose dependent manner”.

The inhibition is the percentage by which the read-out fell short of the control.

Source of the values: US10548895B2, “Ligands that target Plasmodium sporozoite binding sites on CD81 and therapeutic methods using them” (American University In Cairo (AUC), priority 2014, dated 2020).
